Measurements: publication PMC8615111, “Phenolic Thiazoles with Antioxidant and Antiradical Activity. Synthesis, In Vitro Evaluation, Toxicity, Electrochemical Behavior, Quantum Studies and Antimicrobial Screening” (Antioxidants, 2021)
Like-named read-outs stand apart in the source and are kept apart here. Marks after values point to notes of the source that are not given here.

Tests used:
[1] = Cyclic voltammetry of the compounds on graphite-based SPE; format: physicochemical; conditions: CV, 0.1 M HClO4, graphite-based SPE
Procedure: The evaluated compounds’ stock solutions used were prepared at a concentration of 5 mM. To test their redox properties, dilutions of 0.5 mM and 2 mM were prepared in 0.1 M HClO4 electrolyte (pH = 1.2). Screen-printed electrodes (SPEs; Metrohm DropSens, Oviedo, Spain) (planar electrodes) with graphite and gold working electrodes were used. Cyclic voltammetry (CV) and differential pulse voltammetry (DPV) were the electrochemical methods applied. The experimental conditions for each test are mentioned near the corresponding data (Appendix A).
In Figure 2, the cyclic voltammograms (CVs) for each of the compounds considered in this study, compared individually with the voltammogram obtained in the electrolyte (0.1 M HClO4), are presented. Thus, the oxidation/reduction peaks corresponding to the electrochemical transformations suffered by each compound can be observed in the potential range considered, in an acidic environment (low pH). From Figure 3, where the voltammograms of all eight compounds were presented together, a similarity is observed between 8a and 8b, and among the other compounds, whereas 5a and 5b can be noted as having the highest oxidation signals.

[2] = system: HaCaT cells; assay: HaCaT cells integrity, acridine orange staining; format: cell-based, human; conditions: treatment at IC50 concentration for 24 h
Procedure: The cells were left to attach to 10 mm Ø glass slides for 24 h, at a confluence of 3 × 10^4 cells/glass slide. The slides were incubated for 10 min in acridine orange 1 µM in PBS 0.01M, and then the slides were investigated with an epifluorescence microscope Optika 510LD1 with 5 MP CCD cameras at 525 nm (green filter).

[3] = Scavenging of hydrogen peroxide by cyclic voltammetry on Au SPE; conditions: 0.5 mM H2O2, 0.5 mM compound, 0.1 M KCl
Procedure: The antioxidant properties were evaluated in terms of their activity against some free radicals, and other compounds reported in the literature, relevant for this purpose, such as: • ferric ions (Fe^3+)—used to test the reduction of the antioxidant character of the compounds; • DPPH˙ free radical– used to test the scavenging effect of the compounds on this radical; • hydrogen peroxide (H2O2)—used to test the scavenging effect of the synthesized molecules on this compound; • 2,2,6,6-tetramethylpiperidinyl-1-oxy (TEMPO)—used to test the scavenging effect of the synthesized molecules on this compound.
The anodic oxidation of H2O2 was used to determine the antioxidant character of compounds in different samples. Gold-based SPEs purchased from Dropsens were used as working electrode for monitoring the change in the oxidation peak of hydrogen peroxide due to the addition of different amounts of the novel compounds. The oxidation signal of H2O2 obtained at the sweep of the potential in the range from −0.5 to 1.2 V on the gold electrode can be observed in Figure A6. The scavenging abilities of compounds from 1 to 8 on […] are compared in this figure. The addition of an antioxidant, by its ability to consume H2O2, determines the decrease of anodic peak characteristic for H2O2. […]

[4] = design: method as in doi:10.1016/j.molstruc.2021.131278; conditions: cited from earlier work
[5] = design: method as in doi:10.1016/j.molstruc.2021.131278; conditions: cited from earlier work; remark: listed apart in the source
[6] = design: method as in doi:10.1016/j.molstruc.2021.131278; conditions: cited from earlier work; remark: listed apart in the source

| SMILES | Eox (V) ([1]; 1st oxidation peak) | Iox (μA) ([1]; 1st oxidation peak) | Eox (V) ([1]; 2nd oxidation peak) | Iox (μA) ([1]; 2nd oxidation peak) | Ered (V) ([1]; 2nd reduction peak) | Ired (μA) ([1]; 2nd reduction peak) | Eox (V) ([1]; 3rd oxidation peak) | Iox (μA) ([1]; 3rd oxidation peak) | Ered (V) ([1]; 3rd reduction peak) | Ired (μA) ([1]; 3rd reduction peak) | Ired (μA) ([1]; 1st reduction peak) | other results |
| --- | --- | --- | --- | --- | --- | --- | --- | --- | --- | --- | --- | --- |
| C/C(=N\Nc1nc(-c2ccc(O)c(O)c2)cs1)c1ccc(O)cc1O.Cl [Compound 8a, (E)-2-(1-(2,4-dihydroxyphenyl)ethylidene)-1-(4-(3,4-dihydroxyphenyl)thiazol-2-yl)hydrazin-1-ium chloride] | 0.174 V | 21.51 μA | 0.386 V | 37.08 μA | 0.101 V | −4.79 μA | 0.520 V | 4.87 μA | 0.335 V | −38.91 μA |  | morphological effect on HaCaT cells, acridine orange staining [2]: induced nuclear fragmentation; scavenging effect on H2O2 [3]: highest scavenging effect |
| C/C(=N\Nc1nc(C)cs1)c1ccc(O)cc1O [Compound 5a, Dihydroxy-Phenyl-Thiazol-Hydrazinium chloride] |  |  | 0.384 V | 50.85 μA |  |  | 0.632 V | 19.21 μA | 0.256 V | −2.17 μA | −6.62 μA | Ered (V) ([1]; 1st reduction peak): −0.075 V; Chelation Capacity (%), ferrous ions ([4]; 50 µg/mL): 0.27 * %; Chelation Capacity (%), ferrous ions ([4]; 100 µg/mL): 5.06 * %; % of DPPH˙ Scavenged ([5]; 1 µg/mL): 13.11 * %; % of DPPH˙ Scavenged ([5]; 1.5 µg/mL): 20.68 * %; % of DPPH˙ Scavenged ([5]; 2 µg/mL): 28.87 * %; % of DPPH˙ Scavenged ([5]; 3 µg/mL): 48.22 * %; % of DPPH˙ Scavenged ([5]; 5 µg/mL): 79.92 * %; IC50 ([5]; DPPH˙ scavenging): 3.20 * µg/mL; % of ABTS˙^+ Scavenged ([6]; 0.5 µg/mL): 32.42 * %; % of ABTS˙^+ Scavenged ([6]; 0.75 µg/mL): 37.23 * %; % of ABTS˙^+ Scavenged ([6]; 1 µg/mL): 41.36 * %; % of ABTS˙^+ Scavenged ([6]; 1.5 µg/mL): 49.77 * %; % of ABTS˙^+ Scavenged ([6]; 2.5 µg/mL): 70.60 * %; IC50 ([6]; ABTS˙^+ scavenging): 1.45 * µg/mL |
| Cl.Oc1ccc(/C=N/Nc2nc(-c3ccc(O)c(O)c3)cs2)c(O)c1 [Compound 8b, (E)-2-(2,4-dihydroxybenzylidene)-1-(4-(3,4-dihydroxyphenyl)thiazol-2-yl)hydrazin-1-ium chloride] | 0.166 V | 2.19 μA | 0.508 V | 40.99 μA |  |  |  |  | 0.325 V | −40.37 μA |  |  |
| Cc1csc(N/N=C/c2ccc(O)cc2O)n1.Cl [Compound 5b, (E)-2-(2,4-dihydroxybenzylidene)-1-(4-methylthiazol-2-yl)hydrazin-1-ium chloride] |  |  | 0.425 V | 69.35 μA | 0.085 V | −0.68 μA | 0.632 V | 5.87 μA | 0.286 V | −2.86 μA |  |  |
| Br.C/C(=N\Nc1nc(-c2ccc(O)c(C(N)=O)c2)cs1)c1ccc(O)cc1O [Compound 7a, (E)-1-(4-(3-carbamoyl-4-hydroxyphenyl)thiazol-2-yl)-2-(1-(2,4-dihydroxyphenyl)ethylidene)hydrazin-1-ium bromide] | 0.269 V | 14.75 μA | 0.374 V | 2.06 μA | 0.205 V | −4.65 μA | 0.561 V | 2.69 μA |  |  |  | morphological effect on HaCaT cells, acridine orange staining [2]: induced a necroptotic aspect of the cells |
| Br.Oc1ccc(/C=N/Nc2nc(-c3ccccc3)cs2)c(O)c1 [Compound 6b, (E)-2-(2,4-dihydroxybenzylidene)-1-(4-phenylthiazol-2-yl)hydrazin-1-ium bromide] | 0.296 V | 5.28 μA | 0.467 V | 44.99 μA | 0.070 V | −1.49 μA |  |  | 0.401 V | −5.91 μA | −2.22 μA | Ered (V) ([1]; 1st reduction peak): −0.08 V |
| Br.C/C(=N\Nc1nc(-c2ccccc2)cs1)c1ccc(O)cc1O [Compound 6a, (E)-2-(1-(2,4-dihydroxyphenyl)ethylidene)-1-(4-phenylthiazol-2-yl)hydrazin-1-ium bromide] | 0.298 V | 10.73 μA | 0.418 V | 22.48 μA | 0.181 V | −6.84 μA | 0.621 V | 15.03 μA | 0.379 V | −1.19 μA |  |  |
| Br.NC(=O)c1cc(-c2csc(N/N=C/c3ccc(O)cc3O)n2)ccc1O [Compound 7b, (E)-1-(4-(3-carbamoyl-4-hydroxyphenyl)thiazol-2-yl)-2-(2,4-dihydroxybenzylidene) hydrazin-1-ium bromide] | 0.267 V | 13.22 μA | 0.412 V | 15.78 μA |  | 0.078 μA | 0.543 V | 6.385 μA |  | 0.201 μA | −0.119 μA |  |
